Patent US20030203969A1, “Pharmaceutically active aromatic guanylhydrazones” (priority 2000, published 2003)

How the values were obtained:
HepG2-2.2.15 cells = test: Cell viability of HepG2-2.2.15 cells (dye uptake); format: cell-based, human; settings: inhibits cell growth by 50%, read-out: TC50 (the source's name)
Procedure: Human HepG2-2.2.15 cells (ATCC Cat. No. CRL-11997), chronically infected with HBV, are plated in 96-well microtiter plates in DMEM medium supplemented with fetal bovine serum. After incubation at 37° C. in a humidified, 5% CO2 environment for 16-24 hours, the monolayer of HepG2-2.2.15 cells is washed and the medium is replaced with complete medium containing various concentrations of test compound. Every three days during the experiments, the culture medium is replaced with fresh medium containing the appropriately diluted test compound. Six days following the initial administration of the test compound, the cell culture supernatant is collected and clarified by centrifugation. The cell viability is evaluated by a dye uptake procedure (Promega's Cell Titer Aqueous One Solution). Virion-associated HBV DNA present in the tissue culture supernatant is amplified employing PCR technology using primer pairs derived from the HBV strain ayw. Subsequently, the PCR-amplified HBV DNA is detected in real-time by monitoring increases in fluorescence signals that result from exonucleolytic degradation of a quenched fluorescent probe molecule following hybridization of the probe to the amplified HBV DNA (TaqMan; Perkin-Elmer).

EBV = EBV replication in TPA-induced P3HR-1 cells (TaqMan PCR); format: cell-based, Epstein-Barr virus
Procedure: Human P3HR-1 cells are latently infected with EBV. Culturing these cells in the presence of phorbol ester induces a lytic infection cycle, resulting in stimulation of viral replication within the cells. Compound efficacy in this assay is determined using TaqMan PCR technology, and compound toxicity is measured by addition of Promega's Cell Titer Aqueous One Solution (metabolic dye).
1. P3HR-1 cells are counted by the trypan blue dye exclusion method, and the cell count/ml is determined. Cells are pelleted by centrifugation and washed once with PBS to minimize the basal level of virus released from untreated cells which spontaneously enter the lytic cycle and release virus.
2. Cells are resuspended in fresh media and adjusted to the appropriate cell density. Cells are then plated in the interior wells of 96-well round-bottom microtiter plates in a volume of 50 μl per well.
3. The phorbol ester TPA is added to appropriate wells in a volume of 50 μl per well to yield a final concentration of 15 ng/ml. Medium is added in place of TPA in three wells to serve as a negative control.
4. […]
5. A standard curve prepared from known copy numbers of DNA isolated from P3HR-1 cells and amplified is run with each plate in order to quantitate the DNA copy number in each original sample. The efficacy of the compound is determined by comparing DNA copy numbers from test wells with those of control wells.

[1] = tested on: Respiratory Syncytial Virus (Long); format: cell-based
Procedure: A cytoprotection assay procedure using MTS is employed to evaluate compounds for antiviral activity against Respiratory Syncytial Virus (Long) in Vero (African green monkey, ATCC Cat. No. CCL-81) cells. The cells are pre-grown overnight at 37° C. (2×10^4/well in 96 well tissue culture plates) with 10% fetal Bovine serum containing Minimum Essential Medium. The positive control for the assay is Interferon-Gamma/Ribavirin. The infection medium contains reduced serum levels (2% FBS).
Using half log dilutions with high test starting at 100 μg/ml the drug dilutions are made and added to triplicate cultures in 0.1 ml volume and pre-titrated virus suspension is also added in 0.1 ml volume. Cell control containing medium alone, virus controls containing medium and virus, the drug toxicity controls containing medium and each drug concentrations are run simultaneously with the test samples. […] CPE inhibition is determined by dye uptake procedure (Celltiter-MTS). Celltiter reagent contains a novel tetrazolium (MTS) compound and an electron coupling reagent phenazine ethosulfate (PES). MTS-tetrazolium is bioreduced by cells into a colored formazan product that is soluble in tissue culture medium. This conversion is accomplished by NADPH or NADH produced by dehydrogenase enzymes in metabolically active cells. The amount of soluble formazan produced by cellular reduction of the MTS is measured by the absorbance at 490 nm. The quantity of formazan product as measured by the amount of 490 nm absorbance is directly proportional to the number of living cells in the culture thus allowing the rapid quantitative analysis of the inhibition of virus-induced cell killing by the test substances. […]
The inhibitory drug concentration which reduces the viral replication by 95% (IC95) and the minimum drug concentration which inhibits cell growth by 95% (TC95) are calculated by using a regression analysis program for semilog curve fitting. A therapeutic (selectivity) index (TI) for compound No. 4 is determined by dividing the TC95 by the IC95.

## CC(=NNC(=N)N)c1cc(NC(=O)CCCCCCCCC(=O)Nc2cc(C(C)=NNC(=N)N)cc(C(C)=NNC(=N)N)c2)cc(C(C)=NNC(=N)N)c1 [Compound 4, N,N′-bis (3,5-diacetylphenyl) decane diamide tetrakis (amidinohydrazone)]
HepG2-2.2.15 cells
  CC50: > 20000 nM
EBV; EBV, P3HR1 cells
  Comments: Significant Activity
EBV; EBV-infected P3HR1 cells, day 4
  IC50: 2300 nM
[1]; RSV, at the IC95/TC95 level
  Comment: Active
[1]; Vero cells newly infected with RSV
  IC50: 1460 nM
[1]; reduces the viral replication by 95%
  IC95: 2960 nM
